Test results published in patent US12637473B2, “MDM2 protein degraders” (THE REGENTS OF THE UNIVERSITY OF MICHIGAN, priority 2016, dated 2026).

How the values were obtained:
RS4; 11 cell line = experiment: CellTiter-Glo Luminescent Cell Viability Assay, cell growth inhibition; format: cell-based; settings: Homo sapiens, 96 h, 4 days
Protocol: (§1) Cell growth inhibitory activity of representative MDM2 protein degraders was determined using CellTiter-Glo® Luminescent Cell Viability Assay. Cells were seeded in 384-well white opaque cell culture plates at a density of 2,000 cells/well with serially diluted compounds and incubated at 37° C. in an atmosphere of 95% air and 5% CO2 for 4 days. Cell viability was determined using the CellTiter-Glo® Luminescent Cell Viability Assay Kit (Promega, Madison, WI) according to the manufacture's instruction. Briefly, a volume of CellTiter-Glo® Reagent equal to the volume of cell culture medium was added to each well, and then the plates were incubated at room temperature for 10-20 minutes. The luminescent signal was measured using a Tecan Infinite M1000 multimode microplate reader (Tecan, Morrisville, NC). The half maximal inhibitory concentration (IC50) was calculated using the GraphPad Prism 5 software (GraphPad Software, La Jolla, CA). Cpd. […] The structure of Cpd.

MV4-11 cell line = experiment: as above; format: cell-based; settings: Homo sapiens, 96 h, 4 days
Protocol: as §1

Row | Structure (SMILES) | IC50 (RS4; 11 cell line) [nM] | IC50 (MV4-11 cell line) [nM]
1 | CCN1[C@@H](C(=O)NC23CCC(C(=O)NCCCOCCOCCOCCCNC(=O)COc4cccc5c4C(=O)N(C4CCC(=O)NC4=O)C5=O)(CC2)CC3)[C@H](c2cccc(Cl)c2F)[C@]2(C(=O)Nc3cc(Cl)ccc32)C12CCCCC2 (stereo partly drawn) [Cpd. No. 46, (3′R,4'S,5′R)-6″-chloro-4′-(3-chloro-2-fluorophenyl)-N-(4-((1-((2-(2,6-dioxopiperidin-3-yl)-1,3-dioxoisoindolin-4-yl)oxy)-2-oxo-7,10,13-trioxa-3-azahexadecan-16-yl)carbamoyl)bicyclo[2.2.2]octan-1-yl)-1′-ethyl-2″-oxodispiro[cyclohexane-1,2′-pyrrolidine-3′,3″-indoline]-5′-carboxamide] | 20 | 20
2 | O=C1CCC(N2C(=O)c3cccc(NCCCOCCOCCOCCCNC4CCN(C(=O)c5ccc(NC(=O)[C@@H]6NC7(CCCCC7)[C@@]7(C(=O)Nc8cc(Cl)ccc87)[C@H]6c6cccc(Cl)c6F)cc5)CC4)c3C2=O)C(=O)N1 (stereo partly drawn) [Cpd. No. 5, (3′R,4'S,5′R)-6″-chloro-4′-(3-chloro-2-fluorophenyl)-N-(4-(4-((3-(2-(2-(3-((2-(2,6-dioxopiperidin-3-yl)-1,3-dioxoisoindolin-4-yl)amino)propoxy)ethoxy)ethoxy)propyl)amino)piperidine-1-carbonyl)phenyl)-2″-oxodispiro[cyclohexane-1,2′-pyrrolidine-3′,3″-indoline]-5′-carboxamide] | 2.2 | 15
3 | O=C1CCC(N2C(=O)c3cccc(NCCCOCCCCOCCCNC(=O)c4ccc(NC(=O)[C@@H]5NC6(CCCCC6)[C@@]6(C(=O)Nc7cc(Cl)ccc76)[C@H]5c5cccc(Cl)c5F)cc4)c3C2=O)C(=O)N1 (stereo partly drawn) [Cpd. No. 17, (3′R,4'S,5′R)-6″-chloro-4′-(3-chloro-2-fluorophenyl)-N-(4-((3-(4-(3-((2-(2,6-dioxopiperidin-3-yl)-1,3-dioxoisoindolin-4-yl)amino)propoxy)butoxy)propyl)carbamoyl)phenyl)-2″-oxodispiro[cyclohexane-1,2′-pyrrolidine-3′,3″-indoline]-5′-carboxamide] | 19 | 21
4 | O=C(CNc1cccc2c1C(=O)N(C1CCC(=O)NC1=O)C2=O)NCCCOCCOCCOCCCNC(=O)c1ccc(NC(=O)[C@@H]2NC3(CCCCC3)[C@@]3(C(=O)Nc4cc(Cl)ccc43)[C@H]2c2cccc(Cl)c2F)cc1 (stereo partly drawn) [Cpd. No. 3, (3′R,4'S,5′R)-6″-chloro-4′-(3-chloro-2-fluorophenyl)-N-(4-((1-((2-(2,6-dioxopiperidin-3-yl)-1,3-dioxoisoindolin-4-yl)amino)-2-oxo-7,10,13-trioxa-3-azahexadecan-16-yl)carbamoyl)phenyl)-2″-oxodispiro[cyclohexane-1,2′-pyrrolidine-3′,3″-indoline]-5′-carboxamide] | 22 | 5.6
5 | O=C1CCC(N2C(=O)c3cccc(OCCOCCOCCOCCNC(=O)c4ccc(NC(=O)[C@@H]5NC6(CCCCC6)[C@@]6(C(=O)Nc7cc(Cl)ccc76)[C@H]5c5cccc(Cl)c5F)cc4)c3C2=O)C(=O)N1 (stereo partly drawn) [Cpd. No. 4, (3′R,4'S,5′R)-6″-chloro-4′-(3-chloro-2-fluorophenyl)-N-(4-((2-(2-(2-(2-((2-(2,6-dioxopiperidin-3-yl)-1,3-dioxoisoindolin-4-yl)oxy)ethoxy)ethoxy)ethoxy)ethyl)carbamoyl)phenyl)-2″-oxodispiro[cyclohexane-1,2′-pyrrolidine-3′,3″-indoline]-5′-carboxamide] | 14 | 6
6 | O=C1CCC(N2C(=O)c3cccc(NCCCCNC(=O)c4ccc(NC(=O)[C@@H]5NC6(CCCCC6)[C@@]6(C(=O)Nc7cc(Cl)ccc76)[C@H]5c5cccc(Cl)c5F)cc4)c3C2=O)C(=O)N1 (stereo partly drawn) [Cpd. No. 9, (3′R,4'S,5′R)-6″-chloro-4′-(3-chloro-2-fluorophenyl)-N-(4-((4-((2-(2,6-dioxopiperidin-3-yl)-1,3-dioxoisoindolin-4-yl)amino)butyl)carbamoyl)phenyl)-2″-oxodispiro[cyclohexane-1,2′-pyrrolidine-3′,3″-indoline]-5′-carboxamide] | 10 | 163
7 | O=C1CCC(N2C(=O)c3cccc(NCCNC(=O)c4ccc(NC(=O)[C@@H]5NC6(CCCCC6)[C@@]6(C(=O)Nc7cc(Cl)ccc76)[C@H]5c5cccc(Cl)c5F)cc4)c3C2=O)C(=O)N1 (stereo partly drawn) [Cpd. No. 7, (3′R,4'S,5′R)-6″-chloro-4′-(3-chloro-2-fluorophenyl)-N-(4-((2-((2-(2,6-dioxopiperidin-3-yl)-1,3-dioxoisoindolin-4-yl)amino)ethyl)carbamoyl)phenyl)-2″-oxodispiro[cyclohexane-1,2′-pyrrolidine-3′,3″-indoline]-5′-carboxamide] | 15 | 20

The next lines start with the values.

Row | IC50 (RS4; 11 cell line) [nM] | IC50 (MV4-11 cell line) [nM] | Structure (SMILES)
8 | 30 | 42 | O=C1CCC(N2C(=O)c3cccc(NCCCCCCNC(=O)c4ccc(NC(=O)[C@@H]5NC6(CCCCC6)[C@@]6(C(=O)Nc7cc(Cl)ccc76)[C@H]5c5cccc(Cl)c5F)cc4)c3C2=O)C(=O)N1 (stereo partly drawn) [Cpd. No. 11, (3′R,4'S,5′R)-6″-chloro-4′-(3-chloro-2-fluorophenyl)-N-(4-((6-((2-(2,6-dioxopiperidin-3-yl)-1,3-dioxoisoindolin-4-yl)amino)hexyl)carbamoyl)phenyl)-2″-oxodispiro[cyclohexane-1,2′-pyrrolidine-3′,3″-indoline]-5′-carboxamide]
9 | 8.5 | 7.6 | O=C1CCC(N2Cc3c(NCCOCCNC(=O)c4ccc(NC(=O)[C@@H]5NC6(CCCCC6)[C@@]6(C(=O)Nc7cc(Cl)ccc76)[C@H]5c5cccc(Cl)c5F)cc4)cccc3C2=O)C(=O)N1 (stereo partly drawn) [Cpd. No. 20, (3′R,4'S,5′R)-6″-chloro-4′-(3-chloro-2-fluorophenyl)-N-(4-((2-(2-((2-(2,6-dioxopiperidin-3-yl)-1-oxoisoindolin-4-yl)amino)ethoxy)ethyl)carbamoyl)phenyl)-2″-oxodispiro[cyclohexane-1,2′-pyrrolidine-3′,3″-indoline]-5′-carboxamide]
10 | 19 | 21 | O=C1CCC(N2Cc3c(NCCOCCOCCOCCOCCNC(=O)c4ccc(NC(=O)[C@@H]5NC6(CCCCC6)[C@@]6(C(=O)Nc7cc(Cl)ccc76)[C@H]5c5cccc(Cl)c5F)cc4)cccc3C2=O)C(=O)N1 (stereo partly drawn) [Cpd. No. 23, (3′R,4'S,5′R)-6″-chloro-4′-(3-chloro-2-fluorophenyl)-N-(4-((14-((2-(2,6-dioxopiperidin-3-yl)-1-oxoisoindolin-4-yl)amino)-3,6,9,12-tetraoxatetradecyl)carbamoyl)phenyl)-2″-oxodispiro[cyclohexane-1,2′-pyrrolidine-3′,3″-indoline]-5′-carboxamide]
11 | 7.4 | 5.2 | O=C1CCC(N2C(=O)c3cccc(NCCOCCNC(=O)c4ccc(NC(=O)[C@@H]5NC6(CCCCC6)[C@@]6(C(=O)Nc7cc(Cl)ccc76)[C@H]5c5cccc(Cl)c5F)cc4)c3C2=O)C(=O)N1 (stereo partly drawn) [Cpd. No. 13, (3′R,4'S,5′R)-6″-chloro-4′-(3-chloro-2-fluorophenyl)-N-(4-((2-(2-((2-(2,6-dioxopiperidin-3-yl)-1,3-dioxoisoindolin-4-yl)amino)ethoxy)ethyl)carbamoyl)phenyl)-2″-oxodispiro[cyclohexane-1,2′-pyrrolidine-3′,3″-indoline]-5′-carboxamide]
12 | 85 | 157 | O=C(COc1cccc2c1C(=O)N(C1CCC(=O)NC1=O)C2=O)NCCCOCCOCCOCCCNC(=O)c1ccc(NC(=O)[C@@H]2NC3(CCCCC3)[C@@]3(C(=O)Nc4cc(Cl)ccc43)[C@H]2c2cccc(Cl)c2F)cc1 (stereo partly drawn) [Cpd. No. 2, (3′R,4'S,5′R)-6″-chloro-4′-(3-chloro-2-fluorophenyl)-N-(4-((1-((2-(2,6-dioxopiperidin-3-yl)-1,3-dioxoisoindolin-4-yl)oxy)-2-oxo-7,10,13-trioxa-3-azahexadecan-16-yl)carbamoyl)phenyl)-2″-oxodispiro[cyclohexane-1,2′-pyrrolidine-3′,3″-indoline]-5′-carboxamide]
13 | 7.4 | 5.2 | O=C1CCC(N2C(=O)c3cccc(NCCCOCCOCCOCCCNC(=O)c4ccc(NC(=O)[C@@H]5NC6(CCCCC6)[C@@]6(C(=O)Nc7cc(Cl)ccc76)[C@H]5c5cccc(Cl)c5F)cc4)c3C2=O)C(=O)N1 (stereo partly drawn) [Cpd. No. 18, (3′R,4'S,5′R)-6″-chloro-4′-(3-chloro-2-fluorophenyl)-N-(4-((3-(2-(2-(3-((2-(2,6-dioxopiperidin-3-yl)-1,3-dioxoisoindolin-4-yl)amino)propoxy)ethoxy)ethoxy)propyl)carbamoyl)phenyl)-2″-oxodispiro[cyclohexane-1,2′-pyrrolidine-3′,3″-indoline]-5′-carboxamide]
14 | 38 | 37 | O=C1CCC(N2C(=O)c3cccc(NCCOCCOCCOCCOc4ccc(NC(=O)c5ccc(NC(=O)[C@@H]6NC7(CCCCC7)[C@@]7(C(=O)Nc8cc(Cl)ccc87)[C@H]6c6cccc(Cl)c6F)cc5)cc4)c3C2=O)C(=O)N1 (stereo partly drawn) [Cpd. No. 6, (3′R,4'S,5′R)-6″-chloro-4′-(3-chloro-2-fluorophenyl)-N-(4-((4-(2-(2-(2-(2-((2-(2,6-dioxopiperidin-3-yl)-1,3-dioxoisoindolin-4-yl)amino)ethoxy)ethoxy)ethoxy)ethoxy)phenyl)carbamoyl)phenyl)-2″-oxodispiro[cyclohexane-1,2′-pyrrolidine-3′,3″-indoline]-5′-carboxamide]
